Data: publication PMC7534258, “Novel temporin L antimicrobial peptides: promoting self-assembling by lipidic tags to tackle superbugs” (Journal of Enzyme Inhibition and Medicinal Chemistry, 2020)
In brackets after ≈: the same amount, converted by molar mass. Where a SMILES comes first, the peptide text is derived from it. [ ]: non-standard residue; d: D form. The star is where a group is joined. Tridecanoyl = CCCCCCCCCCCCC(=O)*; Undecanoyl = CCCCCCCCCCC(=O)*; Heptanoyl = CCCCCCC(=O)*; Orn = NCCC[C@H](N)C(=O)O; Pentanoyl = CCCCC(=O)*

Assays:
S. aureus ATCC 25923 = assay: microbe, parasite or virus in culture; settings: for MIC: Staphylococcus aureus, ATCC25923, read-out: Antimicrobial activity (MIC) S. aureus ATCC 25923
Protocol: (§1) Staphylococcus aureus ATCC 25923, Pseudomonas aeruginosa ATCC 27853 and Klebsiella pneumoniae ATCC BAA-1705 (carbapenemase producer) were obtained from the American Type Culture Collection (Rockville, MD).
(§2) Identification was performed by sub-culturing on Tryptic Soy Agar (TSA, Becton Dickinson) and by biochemical characterisation using the Vitek II system (Biomerieux). The antimicrobial susceptibility testing of all isolates was determined using Vitek II system and results were interpreted according to European Committee on Antimicrobial Susceptibility Testing (EUCAST version 9.0, 2019). P. aeruginosa was cultured in Brain Heart Infusion broth (BHI, OXOID), S. aureus and K. pneumoniae were cultured in Tryptic Soya broth (TSB, OXOID), under aerobic conditions at 37 °C, for 24 h on an orbital shaker at 200 rpm.
(§3) Minimal inhibitory concentrations (MIC) of all the peptides were determined in Mueller–Hinton medium by the broth microdilution assay, following the procedure already described[22]^,[34]. The compounds were added to bacterial suspension in each well yielding a final cell concentration of 1 × 10^6 CFU/ml and a final compound concentration ranging from 0.78 to 100 µM. Negative control wells were set to contain bacteria in Mueller–Hinton broth plus the amount of vehicle (ethanol) used to dilute each compound. Positive controls included vancomycin (2 µg/ml), tobramycin (4 µg/ml), gentamycin (4 µg/ml), and imipenem (8 µg/ml).

P. aeruginosa ATCC 27853 = assay: Broth microdilution MIC, reference strain; format: cell-based, Pseudomonas aeruginosa; settings: for Antimicrobial activity (MIC) P. aeruginosa ATCC 27853: 100% growth inhibition after 16–18 h at 37 °C
Protocol: as §1, §2, §3

[1] = tested on: K. pneumoniae ATCC BAA-1705; assay: Broth microdilution MIC, reference strain; format: cell-based, Klebsiella pneumoniae
Protocol: as §1, §2, §3

KpCR3 = assay: microbe, parasite or virus in culture; settings: Klebsiella pneumoniae, read-out: Antimicrobial activity (MIC) KpCR3
Protocol: (§4) Clinical strains of P. aeruginosa (Pa1, Pa2 and Pa3), K. pneumoniae (KpCR1, KpCR2 and KpCR3), and S. aureus (Sa1, Sa2 and Sa3) were isolated from bloodstream or pulmonary infections, and belong to a collection of bacterial strains established between 2010 and 2018 at the Department of Molecular Medicine and Medical Biotechnologies (University Federico II, Naples) for research use.
as §2, §3

Pa1 = assay: microbe, parasite or virus in culture; settings: Pseudomonas aeruginosa, PA1, read-out: Antimicrobial activity (MIC) Pa1
Protocol: as §4, §2, §3

KpCR2 = assay: microbe, parasite or virus in culture; settings: Klebsiella pneumoniae, read-out: Antimicrobial activity (MIC) KpCR2
Protocol: as §4, §2, §3

Sa3 = assay: microbe, parasite or virus in culture; settings: Staphylococcus aureus, MRSA, read-out: Antimicrobial activity (MIC) Sa3
Protocol: as §4, §2, §3

Sa2 = assay: microbe, parasite or virus in culture; settings: Staphylococcus aureus, MRSA, read-out: Antimicrobial activity (MIC) Sa2
Protocol: as §4, §2, §3

Pa3 = assay: microbe, parasite or virus in culture; settings: Pseudomonas aeruginosa, read-out: Antimicrobial activity (MIC) Pa3
Protocol: as §4, §2, §3

Pa2 = assay: microbe, parasite or virus in culture; settings: Pseudomonas aeruginosa, read-out: Antimicrobial activity (MIC) Pa2
Protocol: as §4, §2, §3

Sa1 = assay: microbe, parasite or virus in culture; settings: Staphylococcus aureus, MRSA, read-out: Antimicrobial activity (MIC) Sa1
Protocol: as §4, §2, §3

KpCR1 = assay: microbe, parasite or virus in culture; settings: Klebsiella pneumoniae, read-out: Antimicrobial activity (MIC) KpCR1
Protocol: as §4, §2, §3

[2] = 100% growth inhibition after 16–18 h at 37 °C

| SMILES | Antimicrobial activity (MIC) S. aureus ATCC 25923 (S. aureus ATCC 25923; [2]) [µM] | Antimicrobial activity (MIC) P. aeruginosa ATCC 27853 (P. aeruginosa ATCC 27853) [µM] | Antimicrobial activity (MIC) K. pneumoniae ATCC BAA-1705 [1, 2] [µM] | Antimicrobial activity (MIC) S. aureus ATCC 25923 (S. aureus ATCC 25923; ATCC 25923) [µM] | further results |
| --- | --- | --- | --- | --- | --- |
| CC[C@H](C)[C@H](NC(=O)[C@H](CCCNC(=N)N)NC(=O)CNC(=O)[C@@H](CC(C)C)NC(=O)[C@H](Cc1ccccc1)NC(=O)[C@H](CCCCN)NC(=O)[C@H](CO)NC(=O)[C@H](Cc1ccccc1)NC(=O)[C@H](Cc1c[nH]c2ccccc12)NC(=O)[C@@H]1CCCN1C(=O)[C@@H](NC(=O)[C@@H](N)Cc1ccccc1)C(C)C)C(=O)N[C@@H](CC(C)C)C(N)=O [Compound 1A, H-Phe-Val-Pro-Trp-Phe-Ser-Lys-Phe-dLeu-Gly-Arg-Ile-Leu-NH2] (H-FVPWFSKF[dL]GRIL-NH2) | 6.25 | 50 | 50 |  |  |
| CCCCC(=O)N[C@@H](Cc1ccccc1)C(=O)N[C@H](C(=O)N1CCC[C@H]1C(=O)N[C@@H](Cc1c[nH]c2ccccc12)C(=O)N[C@@H](Cc1ccccc1)C(=O)N[C@@H](CO)C(=O)N[C@@H](CCCCN)C(=O)N[C@@H](Cc1ccccc1)C(=O)N[C@H](CC(C)C)C(=O)NCC(=O)N[C@@H](CCCNC(=N)N)C(=O)N[C@H](C(=O)N[C@@H](CC(C)C)C(N)=O)[C@@H](C)CC)C(C)C [Compound 2A, CH3(CH2)3CO-Phe-Val-Pro-Trp-Phe-Ser-Lys-Phe-DLeu-Gly-Arg-Ile-Leu-NH2] (Pentanoyl-FVPWFSKF[dL]GRIL-NH2) |  |  |  | 12.5 |  |
| CCCCCCC(=O)N[C@@H](Cc1ccccc1)C(=O)N[C@H](C(=O)N1CCC[C@H]1C(=O)N[C@@H](Cc1c[nH]c2ccccc12)C(=O)N[C@@H](Cc1ccccc1)C(=O)N[C@@H](CO)C(=O)N[C@@H](CCCCN)C(=O)N[C@@H](Cc1ccccc1)C(=O)N[C@H](CC(C)C)C(=O)NCC(=O)N[C@@H](CCCNC(=N)N)C(=O)N[C@H](C(=O)N[C@@H](CC(C)C)C(N)=O)[C@@H](C)CC)C(C)C [Compound 3A, CH3(CH2)5CO-Phe-Val-Pro-Trp-Phe-Ser-Lys-Phe-DLeu-Gly-Arg-Ile-Leu-NH2] (Heptanoyl-FVPWFSKF[dL]GRIL-NH2) |  |  |  | 12.5 |  |
| CCCCCCCCCCC(=O)N[C@@H](Cc1ccccc1)C(=O)N[C@H](C(=O)N1CCC[C@H]1C(=O)N[C@@H](Cc1c[nH]c2ccccc12)C(=O)N[C@@H](Cc1ccccc1)C(=O)N[C@@H](CO)C(=O)N[C@@H](CCCCN)C(=O)N[C@@H](Cc1ccccc1)C(=O)N[C@H](CC(C)C)C(=O)NCC(=O)N[C@@H](CCCNC(=N)N)C(=O)N[C@H](C(=O)N[C@@H](CC(C)C)C(N)=O)[C@@H](C)CC)C(C)C [Compound 4A, CH3(CH2)9CO-Phe-Val-Pro-Trp-Phe-Ser-Lys-Phe-DLeu-Gly-Arg-Ile-Leu-NH2] (Undecanoyl-FVPWFSKF[dL]GRIL-NH2) | > 100 | > 100 | > 100 |  |  |
| CCCCCCCCCCC(=O)N[C@@H](Cc1ccccc1)C(=O)N[C@H](C(=O)N1CCC[C@H]1C(=O)N[C@@H](Cc1c[nH]c2ccccc12)C(=O)N[C@@H](Cc1ccccc1)C(=O)N[C@@H](CO)C(=O)N[C@@H](CCCCN)C(=O)N[C@@H](Cc1ccccc1)C(=O)N[C@H](CC(C)C)C(=O)N[C@H](CCCCN)C(=O)N[C@@H](CCCNC(=N)N)C(=O)N[C@H](C(=O)N[C@@H](CC(C)C)C(N)=O)[C@@H](C)CC)C(C)C [Compound 4B, CH3(CH2)9CO-Phe-Val-Pro-Trp-Phe-Ser-Lys-Phe-DLeu-DLys-Arg-Ile-Leu-NH2] (Undecanoyl-FVPWFSKF[dL][dK]RIL-NH2) | > 100 | > 100 | > 100 |  |  |
| CCCCCCCCCCCCC(=O)N[C@@H](Cc1ccccc1)C(=O)N[C@H](C(=O)N1CCC[C@H]1C(=O)N[C@@H](Cc1c[nH]c2ccccc12)C(=O)N[C@@H](Cc1ccccc1)C(=O)N[C@@H](CO)C(=O)N[C@@H](CCCCN)C(=O)N[C@@H](Cc1ccccc1)C(=O)N[C@H](CC(C)C)C(=O)NCC(=O)N[C@@H](CCCNC(=N)N)C(=O)N[C@H](C(=O)N[C@@H](CC(C)C)C(N)=O)[C@@H](C)CC)C(C)C [Compound 5A, CH3(CH2)11CO-Phe-Val-Pro-Trp-Phe-Ser-Lys-Phe-DLeu-Gly-Arg-Ile-Leu-NH2] (Tridecanoyl-FVPWFSKF[dL]GRIL-NH2) | > 100 | > 100 | > 100 |  |  |
| CCCCCCCCCCCCC(=O)N[C@@H](Cc1ccccc1)C(=O)N[C@H](C(=O)N1CCC[C@H]1C(=O)N[C@@H](Cc1c[nH]c2ccccc12)C(=O)N[C@@H](Cc1ccccc1)C(=O)N[C@@H](CO)C(=O)N[C@@H](CCCCN)C(=O)N[C@@H](Cc1ccccc1)C(=O)N[C@H](CC(C)C)C(=O)N[C@H](CCCCN)C(=O)N[C@@H](CCCNC(=N)N)C(=O)N[C@H](C(=O)N[C@@H](CC(C)C)C(N)=O)[C@@H](C)CC)C(C)C [Compound 5B, CH3(CH2)11CO-Phe-Val-Pro-Trp-Phe-Ser-Lys-Phe-DLeu-DLys-Arg-Ile-Leu-NH2] (Tridecanoyl-FVPWFSKF[dL][dK]RIL-NH2) | > 100 | > 100 | > 100 |  |  |
| CCCCC(=O)NCCC[C@H](NC(=O)[C@H](CC(C)C)NC(=O)[C@@H](NC(=O)[C@H](CCCNC(=N)N)NC(=O)[C@@H](CCCCN)NC(=O)[C@@H](CC(C)C)NC(=O)[C@H](Cc1ccccc1)NC(=O)[C@H](CCCCN)NC(=O)[C@H](CO)NC(=O)[C@H](Cc1ccccc1)NC(=O)[C@H](Cc1c[nH]c2ccccc12)NC(=O)[C@@H]1CCCN1C(=O)[C@@H](NC(=O)[C@@H](N)Cc1ccccc1)C(C)C)[C@@H](C)CC)C(N)=O [D, H-Phe-Val-Pro-Trp-Phe-Ser-Lys-Phe-DLeu-DLys-Arg-Ile-Leu-Orn(NHCO(CH2)3CH3)-NH2] (H-FVPWFSKF[dL][dK]RIL[Orn](Pentanoyl)-NH2) |  |  |  | 25 | Antimicrobial activity (MIC) K. pneumoniae ATCC BAA-1705 ([1]; ATCC BAA-1705): 50 µM |
| CCCCCCC(=O)NCCC[C@H](NC(=O)[C@H](CC(C)C)NC(=O)[C@@H](NC(=O)[C@H](CCCNC(=N)N)NC(=O)[C@@H](CCCCN)NC(=O)[C@@H](CC(C)C)NC(=O)[C@H](Cc1ccccc1)NC(=O)[C@H](CCCCN)NC(=O)[C@H](CO)NC(=O)[C@H](Cc1ccccc1)NC(=O)[C@H](Cc1c[nH]c2ccccc12)NC(=O)[C@@H]1CCCN1C(=O)[C@@H](NC(=O)[C@@H](N)Cc1ccccc1)C(C)C)[C@@H](C)CC)C(N)=O [E, H-Phe-Val-Pro-Trp-Phe-Ser-Lys-Phe-DLeu-DLys-Arg-Ile-Leu-Orn(NHCO(CH2)5CH3)-NH2] (H-FVPWFSKF[dL][dK]RIL[Orn](Heptanoyl)-NH2) |  |  |  | 25 | Antimicrobial activity (MIC) K. pneumoniae ATCC BAA-1705 ([1]; ATCC BAA-1705): 50 µM |
| CNC(C)C1CCC(N)C(OC2C(N)CC(N)C(OC3OCC(C)(O)C(NC)C3O)C2O)O1 (stereo not shown) [Gentamicin] |  |  |  |  | MIC (S. aureus ATCC 25923): 1 µg/mL (≈ 2.09 µM); MIC (P. aeruginosa ATCC 27853; Pseudomonas aeruginosa, ATCC27853, antibiotics, 16–18 h at 37 °C, read-out: Antimicrobial activity (MIC) P. aeruginosa ATCC 27853): 4 µg/mL (≈ 8.38 µM); MIC ([1]; Klebsiella pneumoniae, ATCCBAA1705, antibiotics, 16–18 h at 37 °C, read-out: Antimicrobial activity (MIC) K. pneumoniae ATCC BAA-1705): 4 µg/mL (≈ 8.38 µM); MIC (KpCR3): 1 µg/mL (≈ 2.09 µM); MIC (Pa1): > 4 µg/mL; MIC (KpCR2): > 8 µg/mL; MIC (Sa3): < 1 µg/mL; MIC (Sa2): < 1 µg/mL; MIC (Pa3): > 4 µg/mL; MIC (Pa2): > 4 µg/mL; MIC (Sa1): < 1 µg/mL; MIC (KpCR1): 1 µg/mL (≈ 2.09 µM) |
| CN[C@H](CC(C)C)C(=O)N[C@H]1C(=O)N[C@@H](CC(N)=O)C(=O)N[C@H]2C(=O)N[C@H]3C(=O)N[C@H](C(=O)N[C@H](C(=O)O)c4cc(O)cc(O)c4-c4cc3ccc4O)[C@H](O)c3ccc(c(Cl)c3)Oc3cc2cc(c3O[C@@H]2O[C@H](CO)[C@@H](O)[C@H](O)[C@H]2O[C@H]2C[C@](C)(N)[C@H](O)[C@H](C)O2)Oc2ccc(cc2Cl)[C@H]1O [Vancomycin] |  |  |  |  | MIC (S. aureus ATCC 25923): 2 µg/mL (≈ 1.38 µM); MIC (Sa3): 2 µg/mL (≈ 1.38 µM); MIC (Sa2): 1 µg/mL (≈ 0.69 µM); MIC (Sa1): 2 µg/mL (≈ 1.38 µM) |
